Measured values as given in US12606541B2, “PPARg modulators and methods of use” (Eisai R&D Management Co., Ltd., priority 2020, dated 2026).

Each compound was assayed against T1, His6-TEV-PPARγ-(234-505) (Homo sapiens, UniProt P37231) (assay: TR-FRET Assay to Measure Co-R Peptide Recruitment to PPARγ). Settings: Co-R peptide recruitment to PPARγ; read-out: TR-FRET AC50.
T1 construct: The His6-TEV-PPARγ-(234-505) protein for assay was expressed and purified; TEV cleavage site (N); made in house
T1 sequence (P37231 234-505): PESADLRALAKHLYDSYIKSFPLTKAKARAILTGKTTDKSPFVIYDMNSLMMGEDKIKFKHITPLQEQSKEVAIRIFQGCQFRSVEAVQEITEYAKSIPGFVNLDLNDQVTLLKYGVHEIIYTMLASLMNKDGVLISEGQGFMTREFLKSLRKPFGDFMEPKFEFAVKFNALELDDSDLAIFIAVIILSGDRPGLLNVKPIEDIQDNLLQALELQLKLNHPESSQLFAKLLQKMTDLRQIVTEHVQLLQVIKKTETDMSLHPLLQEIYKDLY
Type: biochemical
In short: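 Corepressor recruitment is measured by adding terbium-labeled anti-His antibody and FITC SMRT-ID2 peptide, at 5 and 200 nM final, after a 20-minute room-temperature protein–compound incubation. After one further hour, signal is converted to percent response between DMSO and 500 nM T0070907 wells.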

AC50, > 1000 nM:
O=C(N[C@@H]1CCN(Cc2ccccc2)C1)C1CCN(C(=O)c2cc(-c3ccncc3)[nH]n2)CC1 [N-[(3R)-1-benzylpyrrolidin-3-yl]-1-[5-(pyridin-4-yl)-1H-pyrazole-3-carbonyl]piperidine-4-carboxamide]
Cc1cccc(CNC(=O)C2CCCN(C(=O)c3cc(-c4ccncc4)[nH]n3)C2)c1 (centres unmarked) [N-[(3-methylphenyl)methyl]-1-[5-(pyridin-4-yl)-1H-pyrazole-3-carbonyl]piperidine-3-carboxamide]
COc1cc(-c2cc(C(=O)N3CC[C@H](C(=O)NCC45CC(CN4CC(C)(C)F)C5)CC34CC4)n[nH]2)c(F)cn1
CCC1CCC(NC(=O)C2CCN(C(=O)c3cc(-c4ccnc(OC)c4)[nH]n3)CC2)CC1 (centres unmarked)
O=C(NCc1ccccc1Cl)C1CCN(C(=O)c2cc(-c3ccncc3)[nH]n2)CC1 [N-[(2-chlorophenyl)methyl]-1-[5-(pyridin-4-yl)-1H-pyrazole-3-carbonyl]piperidine-4-carboxamide]
COc1ccc(CNC(=O)C2CCN(C(=O)c3cc(-c4ccncc4)[nH]n3)CC2)cc1 [N-[(4-methoxyphenyl)methyl]-1-[5-(pyridin-4-yl)-1H-pyrazole-3-carbonyl]piperidine-4-carboxamide]
O=C(N[C@H]1CCN(Cc2ccccc2)C1)C1CCN(C(=O)c2cc(-c3cccnc3)[nH]n2)CC1 [N-[(3S)-1-benzylpyrrolidin-3-yl]-1-[5-(pyridin-3-yl)-1H-pyrazole-3-carbonyl]piperidine-4-carboxamide]
O=C(NCCc1ccccc1)C1CCN(C(=O)c2cc(-c3ccncc3)[nH]n2)CC1 [N-(2-phenylethyl)-1-[5-(pyridin-4-yl)-1H-pyrazole-3-carbonyl]piperidine-4-carboxamide]
COc1cc(-c2cc(C(=O)N3CCC(C(=O)NC4CCS(=O)(=O)c5ccccc54)CC3)n[nH]2)c(Cl)cn1 (centres unmarked) [1-[5-(5-chloro-2-methoxypyridin-4-yl)-1H-pyrazole-3-carbonyl]-N-(1,1-dioxo-3,4-dihydro-2H-1λ^6-benzothiopyran-4-yl)piperidine-4-carboxamide]
COc1cc(-c2cc(C(=O)N3CCC(C(=O)NCc4nc(C)c(C)s4)CC3)n[nH]2)c(Cl)cn1 [1-[5-(5-chloro-2-methoxypyridin-4-yl)-1H-pyrazole-3-carbonyl]-N-[(4,5-dimethyl-1,3-thiazol-2-yl)methyl]piperidine-4-carboxamide]
CCNC(=O)C1CCN(C(=O)c2cc(-c3ccncc3)[nH]n2)CC1 [N-ethyl-1-[5-(pyridin-4-yl)-1H-pyrazole-3-carbonyl]piperidine-4-carboxamide]
O=C(NC1CCC(F)(F)CC1)C1CCN(C(=O)c2cc(-c3ccncc3)[nH]n2)CC1 [N-(4,4-difluorocyclohexyl)-1-[5-(pyridin-4-yl)-1H-pyrazole-3-carbonyl]piperidine-4-carboxamide]
O=C(NC1CC1)C1CCCN(C(=O)c2cc(-c3ccncc3)[nH]n2)C1 (centres unmarked) [N-cyclopropyl-1-[5-(pyridin-4-yl)-1H-pyrazole-3-carbonyl]piperidine-3-carboxamide]
CC(C)(C)CNC(=O)C1CCN(C(=O)c2cc(-c3ccncc3)[nH]n2)CC1 [N-(2,2-dimethylpropyl)-1-[5-(pyridin-4-yl)-1H-pyrazole-3-carbonyl]piperidine-4-carboxamide]
O=C(Nc1cccc(C(F)(F)F)c1)C1CCN(C(=O)c2cc(-c3ccncc3)[nH]n2)CC1 [1-[5-(pyridin-4-yl)-1H-pyrazole-3-carbonyl]-N-[3-(trifluoromethyl)phenyl]piperidine-4-carboxamide]
O=C(NC1CCC(O)CC1)C1CCN(C(=O)c2cc(-c3ccncc3)[nH]n2)CC1 (centres unmarked)
COc1cc(-c2cc(C(=O)N3C[C@@H]4C[C@H]3CC4C(=O)NCc3cccc(Cl)c3)n[nH]2)c(F)cn1 (relative stereo) [(1S,4R,5R*)—N-[(3-chlorophenyl)methyl]-2-[5-(5-fluoro-2-methoxypyridin-4-yl)-1H-pyrazole-3-carbonyl]-2-azabicyclo[2.2.1]heptane-5-carboxamide]
COc1cc(-c2cc(C(=O)N3CCC(C(=O)Nc4nc(C)cnc4C)CC3)n[nH]2)c(Cl)cn1 [1-[5-(5-chloro-2-methoxypyridin-4-yl)-1H-pyrazole-3-carbonyl]-N-(3,6-dimethylpyrazin-2-yl)piperidine-4-carboxamide]
COc1nc(C)cc(C)c1CNC(=O)C1CCN(C(=O)c2cc(-c3ccncc3)[nH]n2)CC1 [N-[(2-methoxy-4,6-dimethylpyridin-3-yl)methyl]-1-[5-(pyridin-4-yl)-1H-pyrazole-3-carbonyl]piperidine-4-carboxamide]
COc1cc(-c2cc(C(=O)N3CCC(C(=O)NC(C)(C)c4cccc(Cl)c4)CC3)n[nH]2)c(Cl)cn1 [1-[5-(5-chloro-2-methoxypyridin-4-yl)-1H-pyrazole-3-carbonyl]-N-[2-(3-chlorophenyl)propan-2-yl]piperidine-4-carboxamide]
COc1cc(-c2cc(C(=O)N3CCC(C(=O)NC4CCC(C)(O)CC4)CC3)n[nH]2)c(Cl)cn1 (centres unmarked)
COc1cc(-c2cc(C(=O)N3CCC(C(=O)NCC4OCCO4)CC3)n[nH]2)c(Cl)cn1 [1-[5-(5-chloro-2-methoxypyridin-4-yl)-1H-pyrazole-3-carbonyl]-N-[(1,3-dioxolan-2-yl)methyl]piperidine-4-carboxamide]
O=C(NC1CCCC1)C1CCN(C(=O)c2cc(-c3ccncc3)[nH]n2)CC1 [N-cyclopentyl-1-[5-(pyridin-4-yl)-1H-pyrazole-3-carbonyl]piperidine-4-carboxamide]
CN(C)CCNC(=O)C1CCN(C(=O)c2cc(-c3ccncc3)[nH]n2)CC1 [N-[2-(dimethylamino)ethyl]-1-[5-(pyridin-4-yl)-1H-pyrazole-3-carbonyl]piperidine-4-carboxamide]
CC(CNC(=O)C1CCCN(C(=O)c2cc(-c3ccncc3)[nH]n2)C1)c1ccccc1 (centres unmarked) [N-(2-phenylpropyl)-1-[5-(pyridin-4-yl)-1H-pyrazole-3-carbonyl]piperidine-3-carboxamide]
COc1cc(-c2cc(C(=O)N3CCC(C(=O)NCc4cnco4)CC3)n[nH]2)c(Cl)cn1 [1-[5-(5-chloro-2-methoxypyridin-4-yl)-1H-pyrazole-3-carbonyl]-N-[(1,3-oxazol-5-yl)methyl]piperidine-4-carboxamide]
CC(C)(C)Oc1ccc(CNC(=O)C2CCN(C(=O)c3cc(-c4ccncc4)[nH]n3)CC2)cc1 [N-{[4-(tert-butoxy)phenyl]methyl}-1-[5-(pyridin-4-yl)-1H-pyrazole-3-carbonyl]piperidine-4-carboxamide]
CC1CCC(NC(=O)C2CCN(C(=O)c3cc(-c4ccnc(OC5CC5)c4)[nH]n3)CC2)CC1 (centres unmarked) [1-[5-(2-cyclopropoxypyridin-4-yl)-1H-pyrazole-3-carbonyl]-N-(4-methylcyclohexyl)piperidine-4-carboxamide]
COc1cc(-c2cc(C(=O)N3CCC(C(=O)NC4CCC(=O)CC4)CC3)n[nH]2)ccn1 [1-[5-(2-methoxypyridin-4-yl)-1H-pyrazole-3-carbonyl]-N-(4-oxocyclohexyl)piperidine-4-carboxamide]
O=C(NCc1nc(C2CC2)cs1)C1CCN(C(=O)c2cc(-c3ccncc3)[nH]n2)CC1 [N-[(4-cyclopropyl-1,3-thiazol-2-yl)methyl]-1-[5-(pyridin-4-yl)-1H-pyrazole-3-carbonyl]piperidine-4-carboxamide]
CCC1(O)CCC(NC(=O)C2CCN(C(=O)c3cc(-c4cc(OC)ncc4Cl)[nH]n3)CC2)CC1 (centres unmarked) [1-[5-(5-chloro-2-methoxypyridin-4-yl)-1H-pyrazole-3-carbonyl]-N-(4-ethyl-4-hydroxycyclohexyl)piperidine-4-carboxamide]
COc1cc(-c2cc(C(=O)N3CCC(C(=O)NC45CCC(O)(CC4)CC5)CC3)n[nH]2)c(Cl)cn1 [1-[5-(5-chloro-2-methoxypyridin-4-yl)-1H-pyrazole-3-carbonyl]-N-{4-hydroxybicyclo[2.2.2]octan-1-yl}piperidine-4-carboxamide]
COc1cc(-c2cc(C(=O)N3CCC(C(=O)NCC4CN(C)C4)CC3)n[nH]2)c(Cl)cn1 [1-[5-(5-chloro-2-methoxypyridin-4-yl)-1H-pyrazole-3-carbonyl]-N-[(1-methylazetidin-3-yl)methyl]piperidine-4-carboxamide]
COc1cc(-c2cc(C(=O)N3CCC(C(=O)NC4(C)CCOCC4)CC3)n[nH]2)c(Cl)cn1 [1-[5-(5-chloro-2-methoxypyridin-4-yl)-1H-pyrazole-3-carbonyl]-N-(4-methyloxan-4-yl)piperidine-4-carboxamide]
COc1cc(-c2cc(C(=O)N3CCC(C(=O)NCc4nccc(=O)[nH]4)CC3)n[nH]2)c(Cl)cn1 [1-[5-(5-chloro-2-methoxypyridin-4-yl)-1H-pyrazole-3-carbonyl]-N-[(6-oxo-1,6-dihydropyrimidin-2-yl)methyl]piperidine-4-carboxamide]
